Results reported in patent US4599325A, “Substituted tyrosyl alanine dipeptide amides” (G. D. Searle & Co., priority 1985, dated 1986).

Experiments:
opiate receptors = experiment: Opiate binding assay (displacement of 3H-Naloxone); design: species or system rat; conditions: Table 1, 3H-Naloxone, rat brain membranes
Description: The test compounds were evaluated for their ability to displace the binding of ^3 H-Naloxone to opiate receptors isolate from rat brain. Male rats [COBS CD(SD)BR] obtained from Charles River Laboratories (Portage, MI) were sacrificed by cervical dislocation. A purified homogenate of receptor membranes was prepared from the brains according to the method described by Chang and Cuatrecasas. (K.-J. Chang and P. Cuatrecases. Multiple Opiate Receptors: Enkephalins And Morphine Bind To Receptors Of Different Specificity. J. Biol. Chem. 254, 2610-2618 (1979).) The brains were homogenized in 10 volumes of 0.32M sucrose and centrifuged twice at 6,000×g for 15 minutes. Following centrifugation of the supernatants at 40,000×g for 30 minutes, the pellets were allowed to swell, then centrifuged at 6,000 and 40,000×g. This process was repeated. The final pellet was resuspended in 2 volumes of 50 mM tris HCl (pH 7.4). The homogenate was assayed for protein content according to the method of Itzhaki and Gill. R. F. Itzhaki and D. M. Gill. A Micro-Biuret Method for Estimating Proteins. Anal. Biochem. 9, […] (1964).
The binding of the test compounds to the receptor membrane preparation was measured using a modification of the method of Pert and Snyder. C. B. Pert and S. H. Snyder. Properties of Opiate-Receptor Binding in Rat Brain. Proc. Natl. Acad. Sci. 70, 2243-2247 (1973). The receptor assay was run using 1 nM ^3 H-Naloxone and 2 ml of tissue homogenate (0.5 mg/ml protein concentration). Levorphanol (1×10^-5 M) was used as the displacer for non-specific binding. Both the displacer and the test compounds were added in 0.02 ml volumes. The assay was run in 0.05M tris HCl (pH 7.4) ±100 mM NaCl. Total assay volume was 2.03 ml.
Samples were incubated at 25° C. for 60 min., cooled on ice 5 min. and subsequently filtered over Whatman GF/C glass fiber filters with 2.4 ml washes of cold buffer. The filters were then solubilized in 1 ml of NCS at 50° C. for 1 hour. After solubilization, the pH was adjusted with 0.1 ml of glacial acetic acid, 10 ml of PCS was added and the samples were counted in a Nuclear Chicago Mark II liquid scintillation counter. This method was used for the following test compounds: Example 4, Example 5, Example 27, Example 28, Example 38, Example 39, and the prior art compound (4).
A modification of this method was used for the following test compounds: Example 16, Example 17, Example 21, Example 22, Example 24, Example 30, Example 31. In this modification, the total assay volume was adjusted to 1.0 ml. Samples were cooled on ice for 10 minutes and dried at 50° C. for 30 minutes, then 10 mls of PCS was added and the samples counted in a liquid scinitillation counter.
The IC50 values, the concentration of the test compounds which inhibited ^3 H-Naloxone specific binding to the opiate receptor by 50%, were obtained from log-probit plots of concentration-response curves. D. J. Finney. Probit Analysis. Cambridge University Press, London, 1947.

mice = experiment: Writhing assay (phenylbenzoquinone); assay type: in vivo, mouse; design: key to Writhing Mouse Subc., effect of the screening dose / Writhing Mouse Oral, effect of the screening dose: Active: The test compound was rated active if writhing was inhibited (as described) in 5 of 10 mice; conditions: Table 1; for Writhing Mouse Oral, effect of the screening dose: screening dose 10 mg/kg p.o.; for Writhing Mouse Subc., effect of the screening dose: screening dose 10 mg/kg s.c.
Description: Male Charles River albino mice (CD-1/HAM/1LR) weighing between 20 and 30 grams were used. Thirty minutes after subcutaneous or intragastric administration of the test compound (0.1 ml/10 gram body weight), 0.025% (w/v) phenylbenzoquinone was injected intraperitoneally (0.1 ml/10 gram body weight). Five minutes later, each mouse was placed in a large glass beaker and the number of writhes that occurred in the subsequent ten minutes is counted. A writhe consisted of dorsoflexion of the back, extension of the hindlimbs, and strong contraction of the abdominal musculature. The test compound was considered to have produced analgesia in a mouse if the number of writhes elicited by phenylbenzoquinone was equal to or less than one-half the median number of writhes recorded for the saline-treated group that day. The results were expressed as the number of mice (out of a possible ten) in which the test compound produced analgesia. The test compound was rated active if writhing was inhibited (as described) in 5 of 10 mice.
The receptor binding and biological properties of the following compounds of this invention are illustrated in Tables 1 and 2 utilizing the previously described opiate binding, hot plate, tail flick, writhing assay, cholera test or hypertensive test. The standard screening dose for the hot plate test of Table 1 was 10 mg/kg i.v. and for the writhing assay was 10 mg/kg s.c. and p.o.

[1] = test system: spontaneous hypertensive rats (SHR); experiment: Hypertensive test in spontaneous hypertensive rats (SHR); assay type: in vivo, rat; design: key to Antihypertensive Properties, Result: Active: Any compound that resulted in a decrease in arterial blood pressure of 20 mm Hg or greater was considered active; conditions: Table 3; 10 mg/kg intravenously, one unanesthetized male SHR
Description: A compound's ability to act as an antihypertensive agent was determined using spontaneous hypertensive rats (SHR). Male SHR were maintained in-house for 1 or more weeks before use and were between 11 and 16 weeks old. The test compound was administered intravenously and the initial mean arterial blood pressure was measured directly via an arterial catheter implanted immediately before administration of the compound. Blood pressure readings were made 5, 10 and 15 minutes after administration of the compound. […] Statistical comparisons were made using the unpaired student's test.
The following compounds of the invention were evaluated for their antihypertensive properties using the spontaneous hypertensive rat (SHR). […] The SHR test was essentially that described earlier. Each compound listed in Table 3, was administered intravenously to one unanesthetized, male, spontaneously hypertensive rat; the dosage was 10 mg/kg.

Molecule	IC50 (opiate receptors)	Writhing Mouse Oral, effect of the screening dose (mice)	Writhing Mouse Subc., effect of the screening dose (mice)	Antihypertensive Properties, Result [1]	IC50 (opiate receptors; hydrochloride)	ED50 (mice; Mus musculus, sc, subcutaneous, read-out: Writhing Mouse Subc. (ED50))	Writhing Mouse Oral (ED50) (mice; oral, hydrochloride)
2,6-dimethyltyrosyl-N-(3-cyclohexylpropyl)-D-alaninamide, (2-methylpropyl)carbonate (ester) [Example 27]	2.7 nM	Active	Active	–	–	–	–
2,6-dimethyltyrosyl-N-(4-phenylbutyl)-D-alaninamide, hydrochloride [Example 43]	–	Active	Active	–	–	–	–
2,6-dimethyltyrosyl-N-[3-(2,6-dimethylphenyl)propyl]-D-alaninamide hydrochloride [Example 38]	160 nM	Active	Active	–	–	–	–
2,6-dimethyltyrosyl-N-[3-(2,6-dimethylphenyl)propyl]-D-alaninamide, hydrochloride [Example 39]	0.5 nM	Active	Active	–	–	–	–
2-methyltyrosyl-N-(3-phenylpropyl)-D-alaninamide, hydrochloride [Example 16]	–	–	–	Active	–	–	–
Cc1cc(O)cc(C)c1C[C@H](N)C(=O)N[C@H](C)C(=O)NCCCc1ccccc1.Cl [Example 4, 2,6-dimethyltyrosyl-N-(3-phenylpropyl)-D-alaninamide hydrochloride]	–	–	–	Active	50 nM	0.58 mg/kg	2.39 mg/kg
